Here are results for one substance from US11472843B2, “Malacidins and methods of use” (The Rockefeller University, priority 2017, dated 2022).

The test system of test [1] is Pseudomonas aeruginosa PAO1. Kind of test: MIC assay, P. aeruginosa. It counts as cell-based. Here is the method:
(§1) MIC assays were performed in duplicate in 96-well microtiter plates on the basis of the protocol recommended by the Clinical and Laboratory Standards Institute (Cockerill, 2012, Clinical and Laboratory Standards Institute). All presented data are the average of at least three independent assays. Stock solutions of malacidin or daptomycin (2 mg ml^−1 in H2O) were added to the first well in a row and serially diluted (twofold per transfer) across the microtiter plate. CaCl2 was supplemented to media at a final concentration of 15 mM and fetal bovine serum (ATCC) was added to media (1:10) to test the effect of serum. Overnight cultures of bacteria were diluted 5,000-fold, and 50 μl was used as an inoculum in each well. MIC values were determined by visual inspection after 18 h incubation (30° C., static growth). For the enhanced calcium titration experiments, standard MIC assays were performed with methicillin-resistant Staphylococcus aureus (MRSA) PFGE strain type USA300 in media supplemented with CaCl2 at: 25.0, 18.8, 14.1, 7.03, 3.52, 2.50, 1.76, 0.880, 0.440, 0.250 and 0 mM. To assess the effects of monovalent and divalent cations on malacidin activity, standard MIC assays were performed with MRSA USA300 in media supplemented with 15 mM CaCl2, MgCl2, MnCl2, ZnCl2, SrCl2, NaCl and KCl. To evaluate the effects of pulmonary surfactants on activity against a community-acquired pneumonia-causing pathogen, standard MIC assays were performed with Streptococcus pneumoniae TCH8431 in media supplemented with both 15 mM […] and Survanta (beractant) at a final concentration of 5, 1, 0.5, 0.25 or 0% (volume/volume (v/v) percent).

For test [2], the system named is Klebsiella pneumonia ATCC 10031. Kind of test: MIC assay, Klebsiella pneumonia. It counts as cell-based. The protocol: as §1
Test [3] relates to S. aureus NRS108. Kind of test: MIC assay, S. aureus NRS108. It counts as cell-based, Staphylococcus aureus. As to conditions: β-lactams. The protocol:
as §1

The subject of test [4] is UDP-MurNAc-pentapeptide in MRSA USA300. Kind of test: UDP-MurNAc-pentapeptide accumulation assay. It counts as cell-based, Staphylococcus aureus. Particulars: 10 μg ml^−1, 60 min, UPLC-MS. The protocol: The intracellular accumulation of the cell wall precursor UDP-MurNAc-pentapeptide after treatment of MRSA USA300 with malacidin was assessed as previously described (Schneider et al., […], Antimicrob Agents Ch 53:1610-18). In brief, single colonies of MRSA USA300 were grown in LB media with and without 15 mM CaCl2 to an OD600 nm of 0.6. […] of cells and medium were incubated with a final concentration of 130 μg ml^−1 chloramphenicol for 15 min at 37° C. Antibiotics to be assayed were added at 10 μg ml^−1 and incubated for 60 min at 37° C. Vancomycin, known to form a complex with lipid II, was used as a positive control. Cells were collected by centrifugation, and resuspended in 30 μl dH2O and incubated in boiling water for 15 min. The cell extract was then centrifuged at 14,000 g. Supernatant was analysed for UDP-linked cell wall precursors by a UPLC-MS system. Experiments were performed with biological replicates.

The test system of test [5] is Methicillin-resistant Staphylococcus aureus strain MW2. Kind of test: Rat cutaneous wound infection model. It counts as in vivo, Sprague Dawley rats. Particulars: topical, 0.5 mg daily in 25 mM CaCl2. The protocol:
Methicillin-resistant Staphylococcus aureus strain MW2 was grown in Mueller Hinton broth at 37° C. with shaking overnight. The culture was centrifuged, supernatant aspirated and the bacteria were gently washed once in sterile saline. The optical density was determined at 600 nm. The bacterial suspension was diluted to provide a challenge inoculum of approximately 500 CFU per wound in a volume of 0.05 ml in sterile 0.9% NaCl. The inoculum count was verified by viable counts on Mannitol Salt Agar plates spread with proper dilutions of the inoculum and incubated at 37° C. for 24-48 h. For the wound infection model, 8-week-old male (˜200 g) Sprague Dawley rats were given two wounds each. Two rats were used at each time point (day 1 and day 3) for each treatment group for a total of 4 rats (8 wounds) per drug. This sample size was statistically calculated on the basis of previous in-house wound burden studies comparing vehicle-treated groups with antibiotic controls. Rats were randomly selected into the treatment groups. […] At 1 day and 3 days post infection, the rats were humanely euthanized and wounds were excised and assessed for bacterial burdens by plating on MSA. […] Abnormal clinical signs were recorded if observed.

Test [6] concerns Bacillus subtilis 168 IAI. Briefly: MIC assay, B. subtilis. It counts as cell-based. Here is the method:
as §1

For test [7], the system named is Escherichia coli DH5α. Briefly: MIC assay, E. coli DH5α. It counts as cell-based. The protocol:
as §1

For test [8], the system named is Candida albicans ATCC 1884. Briefly: MIC assay, C. albicans. It counts as cell-based. The protocol:
as §1

Test [9] relates to Streptococcus pneumoniae TCH8431. Briefly: MIC assay, S. pneumoniae. It counts as cell-based. Here is the method: as §1
For test [10], the system named is Cryptococcus neoformans ATCC 32045. Briefly: MIC assay, C. neoformans. It counts as cell-based. Here is the method:
as §1

Test [11] concerns E. faecium Com15. Kind of test: MIC assay, E. faecium Com15. It counts as cell-based, Enterococcus faecium. The protocol:
as §1

Consider malacidin A, for which the MIC in test [1] is above 100 µg/mL; in test [2], above 100 µg/mL; in test [3] (S. aureus NRS 108, gentamicin, kanamycin, 15 mM CaCl2) it was 0.2-0.8 μg m1^−1; in test [3] (Staphylococcus aureus NRS108, Gentamicin, Kanamycin), 0.2 to 0.8 µg/mL; in [6] (B. subtilis, 15 mM CaCl2) it was 0.2-0.4 μg m1^−1; in test [6] (Bacillus subtilis 168 IAI) it was 0.2 to 0.4 µg/mL. The MIC in [7] was above 100 µg/mL; in [8] (C. albicans, 15 mM CaCl2), above 100 μg m1^−1; in test [8] (Candida albicans ATCC 1884), above 100 µg/mL; in test [9] (S. pneumoniae, 15 mM CaCl2), 0.8-2.0 μg m1^−1; in test [9] (Streptococcus pneumoniae TCH8431) it was 0.1 to 0.2 µg/mL; in test [10] (C. neoformans, 15 mM CaCl2) it was above 100 μg m1^−1. The MIC in test [10] (Cryptococcus neoformans ATCC 32045) is above 100 µg/mL; in test [11] (E. faecium Com15, 15 mM CaCl2) it was 0.8-2.0 μg m1^−1; in test [11] (Enterococcus faecium Com15) it was 0.8 to 2.0 µg/mL. Besides, in test [4], the “Accumulation of cell wall intermediate UDP-MurNAc-pentapeptide” value is reported as “accumulation of the cell wall intermediate UDP-MurNAc-pentapeptide”. Moreover, the “Bacterial burden in the wounds” value in test [5] (24 hours post infection) and in test [5] (72 hours post infection) was “no observed bacterial burdens” in each case. In addition, the “Activity against S. pneumoniae in the presence of pulmonary surfactants” value in [9] (15 mM CaCl2 and Survanta (beractant) 0-5% v/v) is “largely unaffected”.
